ChEMBL document CHEMBL4376868, “Structure-Activity Relationship Study of Novel 6-Aryl-2-benzoyl-pyridines as Tubulin Polymerization Inhibitors with Potent Antiproliferative Properties” (J Med Chem, 2020)
Activity calls are given as the source filed them. No cut-off for these calls is given here.

system: MDA-MB-231; experiment: Antiproliferative activity against human MDA-MB-231 cells measured after 72 hrs by MTS assay; format: functional, cell-based; settings: MDA-MB-231, 72 h

For `C=C(c1cc(OC)c(OC)c(OC)c1)c1cccc(-c2ccc(C)cc2)n1`, which IC50 is on record?
The IC50 was 159 nM.

How did the IC50 turn out when `COc1cc(C(=O)c2cc(-c3ccc(C)cc3)ccn2)cc(OC)c1OC` was run?
Its IC50 is 35.2 nM.

Which IC50 does the source give for `COc1cc(C(=O)c2cccc(-c3cc(OC)c(OC)c(OC)c3)n2)cc(OC)c1OC` here?
The IC50 was greater than 1000 nM.

With `COc1cc(C(=O)c2cccc(-c3ccc(C(C)=O)cc3)n2)cc(OC)c1OC` as the molecule, how does the IC50 read?
The IC50 was 104 nM.

`COc1cc(C(=O)c2c[nH]c(-c3ccc(C)cc3)n2)cc(OC)c1OC` was tested. Which IC50 did it give?
Its IC50 is 25.3 nM.

For `COc1cc(C(=O)c2cc(C)cc(-c3ccc(C)c(O)c3)n2)cc(OC)c1OC`, which IC50 is on record?
The IC50 was 17.2 nM.

With `COc1cc(C(=O)c2cccc(-c3c(C)cc(C)cc3C)n2)cc(OC)c1OC` as the molecule, how does the IC50 read?
Its IC50 is greater than 1000 nM.

Which IC50 does the source give for `COc1cc(C(=O)c2cccc(-c3cncnc3)n2)cc(OC)c1OC` here?
The IC50 was greater than 1000 nM.

Which IC50 does the source give for `COc1cc(C(=O)c2cccc(-c3cccc(N)c3)n2)cc(OC)c1OC` here?
The IC50 was 34.7 nM.

How did the IC50 turn out when `COc1cc(C(=O)c2cccc(-c3cc[nH]c3)n2)cc(OC)c1OC` was run?
Its IC50 is 41 nM.

`COc1cc(C(=O)c2cccc(-c3ccc(C)c(F)c3)n2)cc(OC)c1OC` was tested. Which IC50 did it give?
The IC50 was 6.5 nM.

system: MDA-MB-453; experiment: Antiproliferative activity against human MDA-MB-453 cells measured after 72 hrs by MTS assay; format: functional, cell-based; settings: MDA-MB-453, 72 h

`C=C(c1cc(OC)c(OC)c(OC)c1)c1cccc(-c2ccc(C)cc2)n1` was tested. Which IC50 did it give?
The IC50 was 155 nM.

For `COc1cc(C(=O)c2cc(-c3ccc(C)cc3)ccn2)cc(OC)c1OC`, which IC50 is on record?
The IC50 was 7.1 nM.

How did the IC50 turn out when `COc1cc(C(=O)c2cccc(-c3cc(OC)c(OC)c(OC)c3)n2)cc(OC)c1OC` was run?
Its IC50 is greater than 1000 nM.

With `COc1cc(C(=O)c2cccc(-c3ccc(C(C)=O)cc3)n2)cc(OC)c1OC` as the molecule, how does the IC50 read?
Its IC50 is 19.1 nM.

With `COc1cc(C(=O)c2c[nH]c(-c3ccc(C)cc3)n2)cc(OC)c1OC` as the molecule, how does the IC50 read?
The IC50 was 11.4 nM.

`COc1cc(C(=O)c2cc(C)cc(-c3ccc(C)c(O)c3)n2)cc(OC)c1OC` was tested. Which IC50 did it give?
The IC50 was 17.8 nM.

How did the IC50 turn out when `COc1cc(C(=O)c2cccc(-c3c(C)cc(C)cc3C)n2)cc(OC)c1OC` was run?
The IC50 was greater than 1000 nM.

Which IC50 does the source give for `COc1cc(C(=O)c2cccc(-c3cncnc3)n2)cc(OC)c1OC` here?
The IC50 was greater than 1000 nM.

`COc1cc(C(=O)c2cccc(-c3cccc(N)c3)n2)cc(OC)c1OC` was tested. Which IC50 did it give?
The IC50 was 25.2 nM.

With `COc1cc(C(=O)c2cccc(-c3cc[nH]c3)n2)cc(OC)c1OC` as the molecule, how does the IC50 read?
The IC50 was 33.9 nM.

Which IC50 does the source give for `COc1cc(C(=O)c2cccc(-c3ccc(C)c(F)c3)n2)cc(OC)c1OC` here?
Its IC50 is 6.5 nM.

system: SK-BR-3; experiment: Antiproliferative activity against human SK-BR-3 cells measured after 72 hrs by MTS assay; format: functional, cell-based; settings: SK-BR-3, 72 h

`C=C(c1cc(OC)c(OC)c(OC)c1)c1cccc(-c2ccc(C)cc2)n1` was tested. Which IC50 did it give?
The IC50 was 186 nM.

`COc1cc(C(=O)c2cc(-c3ccc(C)cc3)ccn2)cc(OC)c1OC` was tested. Which IC50 did it give?
The IC50 was 12 nM.

Which IC50 does the source give for `COc1cc(C(=O)c2cccc(-c3cc(OC)c(OC)c(OC)c3)n2)cc(OC)c1OC` here?
The IC50 was greater than 1000 nM.

Which IC50 does the source give for `COc1cc(C(=O)c2cccc(-c3ccc(C(C)=O)cc3)n2)cc(OC)c1OC` here?
Its IC50 is 18.8 nM.

Which IC50 does the source give for `COc1cc(C(=O)c2c[nH]c(-c3ccc(C)cc3)n2)cc(OC)c1OC` here?
Its IC50 is 12.5 nM.

For `COc1cc(C(=O)c2cc(C)cc(-c3ccc(C)c(O)c3)n2)cc(OC)c1OC`, which IC50 is on record?
The IC50 was 15 nM.

How did the IC50 turn out when `COc1cc(C(=O)c2cccc(-c3c(C)cc(C)cc3C)n2)cc(OC)c1OC` was run?
Its IC50 is greater than 1000 nM.

Which IC50 does the source give for `COc1cc(C(=O)c2cccc(-c3cncnc3)n2)cc(OC)c1OC` here?
Its IC50 is greater than 1000 nM.

For `COc1cc(C(=O)c2cccc(-c3cccc(N)c3)n2)cc(OC)c1OC`, which IC50 is on record?
Its IC50 is 38.9 nM.

For `COc1cc(C(=O)c2cccc(-c3cc[nH]c3)n2)cc(OC)c1OC`, which IC50 is on record?
Its IC50 is 51.2 nM.

With `COc1cc(C(=O)c2cccc(-c3ccc(C)c(F)c3)n2)cc(OC)c1OC` as the molecule, how does the IC50 read?
The IC50 was 4.4 nM.

system: A-375; experiment: Antiproliferative activity against human A375 cells measured after 72 hrs by MTS assay; format: functional, cell-based; settings: A-375, 72 h

`C=C(c1cc(OC)c(OC)c(OC)c1)c1cccc(-c2ccc(C)cc2)n1` was tested. Which IC50 did it give?
The IC50 was 207 nM.

`COc1cc(C(=O)c2cc(-c3ccc(C)cc3)ccn2)cc(OC)c1OC` was tested. Which IC50 did it give?
Its IC50 is 15.6 nM.

`COc1cc(C(=O)c2cccc(-c3cc(OC)c(OC)c(OC)c3)n2)cc(OC)c1OC` was tested. Which IC50 did it give?
Its IC50 is greater than 1000 nM.

For `COc1cc(C(=O)c2cccc(-c3ccc(C(C)=O)cc3)n2)cc(OC)c1OC`, which IC50 is on record?
Its IC50 is 24 nM.

For `COc1cc(C(=O)c2c[nH]c(-c3ccc(C)cc3)n2)cc(OC)c1OC`, which IC50 is on record?
The IC50 was 18.7 nM.

Which IC50 does the source give for `COc1cc(C(=O)c2cc(C)cc(-c3ccc(C)c(O)c3)n2)cc(OC)c1OC` here?
The IC50 was 18.1 nM.

Which IC50 does the source give for `COc1cc(C(=O)c2cccc(-c3c(C)cc(C)cc3C)n2)cc(OC)c1OC` here?
Its IC50 is greater than 1000 nM.

Which IC50 does the source give for `COc1cc(C(=O)c2cccc(-c3cncnc3)n2)cc(OC)c1OC` here?
The IC50 was greater than 1000 nM.

For `COc1cc(C(=O)c2cccc(-c3cccc(N)c3)n2)cc(OC)c1OC`, which IC50 is on record?
The IC50 was 41.8 nM.

With `COc1cc(C(=O)c2cccc(-c3cc[nH]c3)n2)cc(OC)c1OC` as the molecule, how does the IC50 read?
Its IC50 is 46.6 nM.

Which IC50 does the source give for `COc1cc(C(=O)c2cccc(-c3ccc(C)c(F)c3)n2)cc(OC)c1OC` here?
The IC50 was 5.9 nM.

system: M14; experiment: Antiproliferative activity against human M14 cells measured after 72 hrs by MTS assay; format: functional, cell-based; settings: M14, 72 h

With `C=C(c1cc(OC)c(OC)c(OC)c1)c1cccc(-c2ccc(C)cc2)n1` as the molecule, how does the IC50 read?
The IC50 was 167 nM.

With `COc1cc(C(=O)c2cc(-c3ccc(C)cc3)ccn2)cc(OC)c1OC` as the molecule, how does the IC50 read?
Its IC50 is 16.3 nM.

Which IC50 does the source give for `COc1cc(C(=O)c2cccc(-c3cc(OC)c(OC)c(OC)c3)n2)cc(OC)c1OC` here?
The IC50 was greater than 1000 nM.

`COc1cc(C(=O)c2cccc(-c3ccc(C(C)=O)cc3)n2)cc(OC)c1OC` was tested. Which IC50 did it give?
Its IC50 is 22.5 nM.

With `COc1cc(C(=O)c2c[nH]c(-c3ccc(C)cc3)n2)cc(OC)c1OC` as the molecule, how does the IC50 read?
The IC50 was 6.9 nM.

How did the IC50 turn out when `COc1cc(C(=O)c2cc(C)cc(-c3ccc(C)c(O)c3)n2)cc(OC)c1OC` was run?
Its IC50 is 22.3 nM.

Which IC50 does the source give for `COc1cc(C(=O)c2cccc(-c3c(C)cc(C)cc3C)n2)cc(OC)c1OC` here?
The IC50 was greater than 1000 nM.

With `COc1cc(C(=O)c2cccc(-c3cncnc3)n2)cc(OC)c1OC` as the molecule, how does the IC50 read?
The IC50 was greater than 1000 nM.

Which IC50 does the source give for `COc1cc(C(=O)c2cccc(-c3cccc(N)c3)n2)cc(OC)c1OC` here?
The IC50 was 25.9 nM.

With `COc1cc(C(=O)c2cccc(-c3cc[nH]c3)n2)cc(OC)c1OC` as the molecule, how does the IC50 read?
The IC50 was 45.1 nM.

Which IC50 does the source give for `COc1cc(C(=O)c2cccc(-c3ccc(C)c(F)c3)n2)cc(OC)c1OC` here?
Its IC50 is 6.7 nM.

system: RPMI-7951; experiment: Antiproliferative activity against human RPMI7951 cells measured after 72 hrs by MTS assay; format: functional, cell-based; settings: RPMI-7951, 72 h

With `C=C(c1cc(OC)c(OC)c(OC)c1)c1cccc(-c2ccc(C)cc2)n1` as the molecule, how does the IC50 read?
Its IC50 is 154 nM.

For `COc1cc(C(=O)c2cc(-c3ccc(C)cc3)ccn2)cc(OC)c1OC`, which IC50 is on record?
Its IC50 is 19.8 nM.

With `COc1cc(C(=O)c2cccc(-c3cc(OC)c(OC)c(OC)c3)n2)cc(OC)c1OC` as the molecule, how does the IC50 read?
The IC50 was greater than 1000 nM.

`COc1cc(C(=O)c2cccc(-c3ccc(C(C)=O)cc3)n2)cc(OC)c1OC` was tested. Which IC50 did it give?
The IC50 was 40.5 nM.

How did the IC50 turn out when `COc1cc(C(=O)c2c[nH]c(-c3ccc(C)cc3)n2)cc(OC)c1OC` was run?
Its IC50 is 6.4 nM.

Which IC50 does the source give for `COc1cc(C(=O)c2cc(C)cc(-c3ccc(C)c(O)c3)n2)cc(OC)c1OC` here?
The IC50 was 17.1 nM.

How did the IC50 turn out when `COc1cc(C(=O)c2cccc(-c3c(C)cc(C)cc3C)n2)cc(OC)c1OC` was run?
The IC50 was greater than 1000 nM.

For `COc1cc(C(=O)c2cccc(-c3cncnc3)n2)cc(OC)c1OC`, which IC50 is on record?
Its IC50 is greater than 1000 nM.

`COc1cc(C(=O)c2cccc(-c3cccc(N)c3)n2)cc(OC)c1OC` was tested. Which IC50 did it give?
The IC50 was 20.1 nM.

With `COc1cc(C(=O)c2cccc(-c3cc[nH]c3)n2)cc(OC)c1OC` as the molecule, how does the IC50 read?
Its IC50 is 45.2 nM.

How did the IC50 turn out when `COc1cc(C(=O)c2cccc(-c3ccc(C)c(F)c3)n2)cc(OC)c1OC` was run?
The IC50 was 5.6 nM.

molecular target: Tubulin (Sus scrofa) (UniProt P02554+P02550); experiment: Inhibition of porcine brain tubulin polymerization at 10 uM measured at 30 secs interval for 65 mins by spectrophotometric method; settings: not given
Sequence (P02550 whole entry, looked up): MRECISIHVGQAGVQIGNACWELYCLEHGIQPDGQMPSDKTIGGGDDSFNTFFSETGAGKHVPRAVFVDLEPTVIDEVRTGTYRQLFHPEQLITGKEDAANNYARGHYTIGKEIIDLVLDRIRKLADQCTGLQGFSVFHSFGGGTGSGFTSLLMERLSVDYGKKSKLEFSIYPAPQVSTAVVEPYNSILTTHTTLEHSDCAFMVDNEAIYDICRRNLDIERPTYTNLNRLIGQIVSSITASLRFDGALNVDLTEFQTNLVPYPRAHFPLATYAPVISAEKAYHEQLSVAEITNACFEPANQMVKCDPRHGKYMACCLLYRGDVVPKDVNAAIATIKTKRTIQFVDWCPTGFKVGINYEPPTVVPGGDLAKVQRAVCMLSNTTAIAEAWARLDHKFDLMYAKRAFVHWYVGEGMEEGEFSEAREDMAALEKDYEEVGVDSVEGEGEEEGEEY
Sequence (P02554 whole entry, looked up): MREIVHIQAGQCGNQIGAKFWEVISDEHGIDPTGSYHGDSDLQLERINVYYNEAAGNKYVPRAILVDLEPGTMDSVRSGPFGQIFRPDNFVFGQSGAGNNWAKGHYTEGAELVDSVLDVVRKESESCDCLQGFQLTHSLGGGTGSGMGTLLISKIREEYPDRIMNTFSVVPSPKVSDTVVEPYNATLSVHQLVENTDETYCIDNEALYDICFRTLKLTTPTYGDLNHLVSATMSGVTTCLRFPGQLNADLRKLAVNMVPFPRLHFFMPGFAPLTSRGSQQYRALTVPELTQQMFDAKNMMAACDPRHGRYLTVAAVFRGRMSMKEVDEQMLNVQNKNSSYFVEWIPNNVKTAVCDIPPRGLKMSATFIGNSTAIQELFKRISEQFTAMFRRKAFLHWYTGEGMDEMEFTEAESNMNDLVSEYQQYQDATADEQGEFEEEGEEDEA

For `COc1cc(C(=O)c2c[nH]c(-c3ccc(C)cc3)n2)cc(OC)c1OC`, which inhibition is on record?
Its inhibition is “Active”.
